What was measured:
Clostridium ljungdahlii [1] = experiment: Effect of CO feed rates on CO conversion (Example 5); type: cell-based
Procedure: Clostridium ljungdahlii was grown and maintained using only CO and N2 (feed gas) in a bioreactor (New Brunswick BioFlo I or IIc). During the experiment, rate of feed gas was altered to obtain desired culture conversions. Lower culture conversions were employed to provide excess dissolved CO to Clostridium ljungdahlii.
Low culture conversions of CO was used as s method to provide excess dissolved CO to the culture. For example, when a culture in a reactor can convert X amount of CO at a given agitation and at a given flow rate, the dissolved CO can be increased by increasing the flow rate so that culture conversions go below X.

Clostridium ljungdahlii [2] = experiment: Inhibitory CO feed rates, four stage protocol (Example 6); type: cell-based; conditions: for CRT Average (cell retention time): from 18 hours after beginning to end of stage
Procedure: Clostridium ljungdahlii was grown in a bioreactor (New Brunswick BioFlo I or IIc).
To achieve a conductivity of 9 mS/cm, a medium was made using 1.5× of all components except for vitamins. A four stage protocol was used as follows:
Stage 1: A culture was grown up in a 2 L bioreactor using syngas. With a cell density of 2.9 g/L, the gas source was switched from syngas mixture to a CO/N2 mixture containing 95% CO and 5% N2.
Stage 2: At T=26 hrs, a CO conversion target was set at >90%.
Stage 3: At T=70 hrs, the CO conversion target was decreased from 90% to 85%.
Stage 4: At T=97 hrs, the CO conversion target was decreased from 85% to 80%.
Dissolved CO was calculated for each gas sample using representative KLa values for a particular gas flow rate. These values were then averaged to find a representative value for each stage. Pictures were taken throughout the experiment in order to qualitatively study the morphology change over time.
Average cell retention time (CRT) was calculated for the period of 18 hours after the beginning of each stage to the end of each stage.

[3] = Dissolved CO by Henry's law calculation; type: physicochemical; conditions: feeding a gas containing 9.5% CO, 37 to 38° C.
Procedure: In order to calculate dissolved CO, the mass transfer coefficient (KLa) of the system needs to be determined. KLa value will depend on various factors, such as architecture of the reactor, superficial gas flow rate, un-aroused volume, temperature and agitation power. Therefore KLa values vary from reactor conditions to condition.
Henry's law:P=KHC • Henry's constant=KH=p/c (L(psi)/mol) • at 38° C., KH=17640 (L(psi)/mol)
In a CSTR containing CO consuming bacteria, the following equation may be used to estimate dissolved CO. • KLa((PCO(head space)/KH)−(PCO(liquid)/KH))=COU • COU=carbon monoxide uptake (mol/L/min) • KLa=mass transfer coefficient (min^−1) • (PCO(liquid)/KH)=dissolved CO (mol/L)
When dissolved CO=0 • KLa=COU/(PCO(head space)/KH) • KLa((PCO(head space)/KH)−(PCO(liquid)/KH))=COU • KH=L(psi)/mol

Clostridium ljungdahlii [4] = experiment: Fermentation with high CO feed-gas, head-space CO partial pressure control (Example 1); type: cell-based; conditions: 95% CO/5% N2 feed gas, head-space CO controlled; inoculum 1.28 g/l; within 41.4 hours after inoculation
Procedure: (§1) New Brunswick and CelliGen 310 bioreactors containing modified 1× ethanol medium were inoculated with 1.28 g/l of actively growing (in syngas) Clostridium ljungdahlii. Before inoculation, the rate of agitation of the reactor was set to 800 rpm. Gas and liquid samples taken from the reactor at every 1 to 4 hour intervals were analyzed for consumption or production of various gas components, broth acetic acid concentration, broth ethanol concentration and the optical density of the culture. Also the composition of the feed-gas was measured daily and the flow to the reactor was measured real time by the mass flow controller regulating feed-gas to the reactor. High CO composition feed gas of 95% CO/5% N2 was utilized.
The following method was used to regulate rate of gas supply to the reactor: X=(head space CO %/100)×(measured reactor pressure(psig)+atmospheric pressure/atmospheric pressure(14.7))
if x is 0.08 or below gas flow to the reactor was increased by 7.6% of the current mole value of gas flow rate to the reactor
if X is 0.12 or higher gas flow to the reactor was decreased by 7.6% of the current mole value of gas flow rate to the reactor
(§2) A Shimadzu GC-2014 gas chromatograph was used to measure the broth ethanol and acetic acid concentrations. SRI 8610c gas chromatograph was used to measure the components of the feed-gas.

[5] = test system: Butyribacterium methylotrophicum; experiment: Fermentation with high CO feed-gas, head-space CO partial pressure control (Example 2); type: cell-based; conditions: 95% CO/5% N2 feed gas, head-space CO controlled; inoculum 0.92 g/l; within 68 hours after inoculation
Procedure: as §1, with “reactor” for “bioreactors”, “0.92” for “1.28”, “Butyribacterium methylotrophicum.” for “Clostridium ljungdahlii.”
The method described in Example 1 was used to regulate the rate of gas supply to the reactor.
as §2

[6] = at 38° C.; cited from earlier work
Clostridium ljungdahlii [7] = experiment: Effect of CO concentration on growth, bioreactor runs (Example 7); type: cell-based; conditions: for bacterial cell density over time: inoculum 3.8 g/L
Procedure: Clostridium ljungdahlii was grown in a bioreactor (New Brunswick BioFlo I or IIc). The following adjustments were made:
Conductivity of the culture was adjusted by adjusting the strength of the growth medium, for example concentration of all the components, except vitamin in the growth medium was increased by 1.5 times to increase the conductivity of the culture from approximately 7 mS to approximately 9.5 mS. […]
Initial gas flow rate of each experiment was kept unchanged throughout the experiment. Reactor parameters, when CO conversion values reach a plateau after a successful start-up, were used to calculate KLa for relevant conditions.
Syngas composition was 30% CO, 15% H2, 10% CO2 and 45% N2.

[8] = test system: Butyribacterium methylotrophicum; experiment: Fermentation with low CO feed-gas (Example 4); type: cell-based; conditions: 9.5% CO/90.5% N2 feed gas, 534 ml/min; inoculum 0.86 g/l; within 44.4 hours after inoculation
Procedure: as §1, with “310 reactor” for “310 bioreactors”, “medium was” for “medium were”, “with 0.86” for “with 1.28”, “(in 5% CO/95% N2) Butyribacterium methylotrophicum. At the start of the experiment” for “(in syngas) Clostridium ljungdahlii. Before inoculation,”, “reactor.” for “reactor. High CO composition feed gas of 95% CO/5% N2 was utilized.”
(§3) A CO composition feed gas of 9.5% CO/90.5% N2 was utilized and the flow was set to 534 ml/min. All through out the experiment the rate of feed gas to the reactor was not adjusted.
This method was utilized to keep the dissolved CO in the culture broth below 0.12 mmol/l at around 37 to 38° C. According to the Henry's law the maximum dissolved CO concentration that can be obtained by feeding a gas containing 9.5% is 0.079 mmol.
as §2

Clostridium ljungdahlii [9] = experiment: Fermentation with low CO feed-gas (Example 3); type: cell-based; conditions: 9.5% CO/90.5% N2 feed gas, 534 ml/min; inoculum 0.38 g/l; within 90.6 hours after inoculation
Procedure: as §1, with “CelliGen 310 reactor containing modified” for “CelliGen 310 bioreactors containing modified”, “inoculated with 0.38 g/l of” for “inoculated with 1.28 g/l of”, “was measured in real time” for “was measured real time”, “the reactor.” for “the reactor. High CO composition feed gas of 95% CO/5% N2 was utilized.”
as §3
The method was utilized to keep the dissolved CO in the culture broth below 0.12 mmol/L at around 37 to 38° C. According to the Henry's Law, the maximum dissolved CO concentration that can be obtained by feeding a gas containing 9.5% is 0.079 mmol.
as §2

[10] = Stage 2, average dissolved CO 0.04 mmol
[11] = Stage 3, average dissolved CO 0.12 mmol
[12] = Stage 4, average dissolved CO 0.29 mmol
[13] = Run #2: 1× growth medium, 35 ml/min syngas
[14] = Run #3: 1× growth medium, 40 ml/min syngas
[15] = Run #4: 1× growth medium, 45 ml/min syngas
[16] = Run #10: 1.5× growth medium, 20 ml/min syngas

## [C-]#[O+] [CO, carbon monoxide]
Clostridium ljungdahlii [1]; CO conversions returned to approximately 80%
  ethanol production, cell mass and morphology after recovery: returned to healthy culture levels
Clostridium ljungdahlii [1]; at approximately 80% CO conversions
  signs of inhibition (ethanol and acetic acid production, SCU, cell mass, cell morphology): didn't show signs of inhibition
Clostridium ljungdahlii [1]; feed gas increased to maintain CO conversions below approximately 70%
  inhibition of culture: inhibited
Clostridium ljungdahlii [2]; [10]
  SCU Average (specific CO uptake): 0.581 mmol/g/min
  CRT Average (cell retention time): 23.74 h
Clostridium ljungdahlii [2]; [11]
  SCU Average (specific CO uptake): 0.559 mmol/g/min
  CRT Average (cell retention time): 31.89 h
Clostridium ljungdahlii [2]; [12]
  SCU Average (specific CO uptake): 0.360 mmol/g/min
  CRT Average (cell retention time): 75.92 h
Clostridium ljungdahlii [2]; Stage 4, conversions coming down to 80%
  dissolved CO at which specific CO uptake proceeded on a downward trend: around 0.2 mmol
[3]
  maximum dissolved CO concentration according to Henry's Law: 0.079 mmol
Clostridium ljungdahlii [4]
  cell mass: 8.24 g/L
[5]
  cell mass: 7.88 g/L
[6]
  Henry's constant KH: 17640 L(psi)/mol
Clostridium ljungdahlii [7]; Run #1: 1× growth medium, 25 ml/min syngas
  doubling time: about 20 hours
Clostridium ljungdahlii [7]; Run #1: 1× growth medium, 25 ml/min syngas (30% CO)
  initial lag period: about 20 hours
Clostridium ljungdahlii [7]; [13]
  doubling time: about 20 hours
  initial lag period: about 36 hours
Clostridium ljungdahlii [7]; Run #2: 35 ml/min syngas, at about 51 hours after inoculation
  cell morphology: elongated and curved
Clostridium ljungdahlii [7]; [14]
  doubling time: about 20 hours
  initial lag period: about 45 hours
Clostridium ljungdahlii [7]; Run #3: 40 ml/min syngas, at about 51 hours after inoculation
  cell morphology: elongated and curved
Clostridium ljungdahlii [7]; [15]
  doubling time: about 20 hours
  initial lag period: about 50 hours
Clostridium ljungdahlii [7]; Run #4: 45 ml/min syngas, at about 55 hours after inoculation
  cell morphology: elongated and curved
Clostridium ljungdahlii [7]; Run #5: 1× growth medium, 50 ml/min syngas
  lag period (culture continued to lag): > 70 h
Clostridium ljungdahlii [7]; Run #6: 1× growth medium, 50 ml/min syngas, higher inoculum
  doubling time: about 20 hours
Clostridium ljungdahlii [7]; Run #6: 1× growth medium, 50 ml/min syngas, higher inoculum (4.8 vs 3.8 g/L cells)
  initial lag period: about 10 hours
Clostridium ljungdahlii [7]; Run #6: 50 ml/min syngas, higher inoculum, at about 20 hours after inoculation
  cell morphology: short and consistent in nature
Clostridium ljungdahlii [7]; Run #7: 1.5× growth medium, 45 ml/min syngas
  bacterial cell density over time: went down with time
Clostridium ljungdahlii [7]; Run #8: 1.5× growth medium, 35 ml/min syngas
  bacterial cell density over time: went down with time
Clostridium ljungdahlii [7]; Run #9: 1.5× growth medium, 30 ml/min syngas
  bacterial cell density over time: went down with time
Clostridium ljungdahlii [7]; [16]
  doubling time: 20 h
  bacterial cell density over time: went up with time
[8]
  cell mass: 3.32 g/L
Clostridium ljungdahlii [9]
  cell mass: 6.21 g/L

Reference: patent US8980575B2, “Process to avoid inhibition of acetogens by CO” (Ineos Bio SA, priority 2012, dated 2015)
